One test concerns Pasteurella multocida. Kind of test: Efficacy against Pasteurella multocida infections in mice when administered by injection (Experiment 1). The test is classed as in vivo, Swiss mice. Particulars: ip; for responders at 2.5 mg/kg: 2.5 mg./kg. i.p.; for responders at 5 mg/kg: 5.0 mg./kg. i.p.; for responders at 7.5 mg/kg: 7.5 mg./kg. i.p. The protocol: The efficacy of the novel compounds against Pasteurella multocida infections in mice when administered by injection was studied.
Female Swiss mice weighing from 15 to about 20 g. were used. The test compound, 5.0 mg., was weighed out and dissolved in 0.5 ml. of dimethyl sulfoxide, and this solution was added to 9.5 ml. of sodium carboxymethylcellulose suspension. Groups of five mice each were injected intraperitoneally with 0.1 ml. each of the above-prepared test composition. This preparation gave a test rate of 2.5 mg. per kilo of body weight of mouse. The compounds were tested at 2.5, 5.0, or 7.5 mg. per kilo of body weight of mouse, and the test preparations for rates of 5.0 and 7.5 mg./kg. were prepared in a similar manner. Immediately after receiving the test compound, the mice were challenged using log10 dilutions of 10^-^4, 10^-^5, 10^-^6, and 10^-^7 of a 16 to 20-hour tryptose broth culture of Pasteurella multocida at 0.1 ml. per mouse subcutaneously. Similar groups of nontreated control mice were also challenged, the challenge being administered subcutaneously. The groups of mice were observed daily for mortality and the total mortality in treated groups compared with that which occurred in the nonmedicated control groups. Each test compound is identified by the number of the example describing its preparation.
In the chart, column 1 lists the test compound; column 2, the dosage of test compound in mg./kg. of mouse body weight; column 3, the dilution of the challenge organism; and column 4, the ratio of the number of mice surviving the test at each dosage and challenge dilution to the number of mice tested at each dosage and challenge dilution, called the survival ratio.

For the next test, the system named is Salmonella typhimurium. As to the kind of experiment: Control of infections caused by Salmonella typhimurium in chickens, subcutaneous (Experiment 2). Type of test: in vivo. Conditions: Salmonella enterica, sc, 144 h, 6 days, read-out: Survival Ratio (converted); for responders at 7.5 mg/kg: 7.5 mg./kg. subcutaneous; for responders at 15 mg/kg: 15 mg./kg. subcutaneous; for responders at 30 mg/kg: 30 mg./kg. subcutaneous; for responders at 60 mg/kg: 60 mg./kg. subcutaneous. The procedure: The efficacy of the novel compounds in the control of infections caused by Salmonella typhimurium in chickens was evaluated in the following manner.
The test was carried out using day-old chicks weighing approximately 35 g. each. The chicks were divided into groups of 5 chicks per each dosage level. A portion of the chicks received the test compound which was suspended in 0.2 ml. of polyethylene glycol 200 and administered subcutanusly in the neck. […] All the chicks were challenged with a 1:200 dilution of a culture of the organism, 0.1 ml. of the dilution being injected into each chick in the leg intramuscularly. […] The test compounds are identified in the same manner as set forth in Experiment 1.
In the chart, column 1 lists the compounds tested; column 2, the dosage of test compound in mg./kg.; and column 3, the survival ratio.

Where [1] appears, read: challenge dilution 10^-^4, read-out: Survival Ratio (converted).
Where [2] appears, read: challenge dilution 10^-^5, read-out: Survival Ratio (converted).
[3] abbreviates: challenge dilution 10^-^6, read-out: Survival Ratio (converted).

Read-outs that look alike come from different tables or passages of the source.

As to `CC(C)COC=Nc1c(C#N)c(-c2ncc([N+](=O)[O-])n2C)nn1C` [Compound 13C, Isobutyl N-[4-cyano-1-methyl-3-(1-methyl-5-nitro-2-imidazolyl)pyrazol-5-yl]formimidate], the responders at 2.5 mg/kg in the test with Pasteurella multocida (setting [1]) is 40%; in the test on Pasteurella multocida (setting [2]) it was 30%; in the test on Pasteurella multocida (setting [3]), 70%. Also, the responders at 5 mg/kg with Pasteurella multocida (setting [1]) is 40%; with Pasteurella multocida (setting [2]), 80%; with Pasteurella multocida (setting [3]) it was 90%. For the same molecule, the responders at 7.5 mg/kg was 80% in the test on Pasteurella multocida (challenge dilution 10^-^4, read-out: Survival Ratio); 100% in the test on Pasteurella multocida (challenge dilution 10^-^5, read-out: Survival Ratio); 100% in the test on Pasteurella multocida (challenge dilution 10^-^6, read-out: Survival Ratio); 0% with Salmonella typhimurium. Also, the responders at 15 mg/kg in the test on Salmonella typhimurium was 46.7%. Besides, the responders at 30 mg/kg with Salmonella typhimurium is 53.3%. In the test on Salmonella typhimurium, the responders at 60 mg/kg is 66.7%.

Turning to `CC(=O)N(C(C)=O)c1c(C#N)c(-c2ncc([N+](=O)[O-])n2C)nn1C` [Compound 5, N-[4-Cyano-1-methyl-3-(1-methyl-5-nitro-2-imidazolyl)pyrazol-5-yl]diacetamide], the responders at 2.5 mg/kg with Pasteurella multocida (setting [1]) is 100%. Besides, the responders at 2.5 mg/kg with Pasteurella multocida (setting [2]) was 90%. Moreover, the responders at 2.5 mg/kg in the test with Pasteurella multocida (setting [3]) is 100%. Further, in the test with Salmonella typhimurium, the responders at 7.5 mg/kg was 0%, the responders at 15 mg/kg is 0%, the responders at 30 mg/kg is 40% and the responders at 60 mg/kg was 45%.

Consider `Cn1nc(-c2ncc([N+](=O)[O-])n2C)c(C#N)c1N=COCCCl` [Compound 13B, 2-Chloroethyl N-[4-cyano-1-methyl-3-(1-methyl-5-nitro-2-imidazolyl)pyrazol-5-yl]formimidate], for which the responders at 5 mg/kg in the test with Pasteurella multocida (setting [1]) was 90%. Further, in the test with Pasteurella multocida (setting [2]), the responders at 5 mg/kg is 70%. Besides, the responders at 5 mg/kg in the test on Pasteurella multocida (setting [3]) was 80%. Moreover, in the test with Salmonella typhimurium, the responders at 7.5 mg/kg is 10%, the responders at 15 mg/kg is 65%, the responders at 30 mg/kg was 50% and the responders at 60 mg/kg was 70%.

Consider `CCOC(C)=Nc1c(C#N)c(-c2ncc([N+](=O)[O-])n2C)nn1C` [Compound 13, Ethyl N-[4-cyano-1-methyl-3-(1-methyl-5-nitro-2-imidazolyl)pyrazol-5-yl]acetimidate], for which, in the test on Salmonella typhimurium, the responders at 7.5 mg/kg is 53.3%, the responders at 15 mg/kg is 40%, the responders at 30 mg/kg was 55% and the responders at 60 mg/kg is 65%.
